In brackets after ≈: the same amount, converted by molar mass. Values belong to the compound of their own block, whether it stands above or below them. *1 amine or outer side, *2 acyl side, *3 side chain or, on linkers, in order; H or OH if unused. Where a SMILES comes first, the peptide text is derived from it. [ ]: non-standard residue; d: D form. The star is where a group is joined. DAMPA = CN(Cc1cnc2nc(N)nc(N)c2n1)c1ccc(C(=O)*)cc1; Orn(N5-OH,N5-Ac) = CC(=O)N(O)CCC[C@H](N)C(=O)O; d(γGlu) = O=C(O)[C@@H](CCC(=O)[*:2])N[*:1]; Ethylenediamine = C(CN[*:2])N[*:1]
What was measured:
[1] = system: clinical Streptococcus pneumoniae; test: MIC determination on Streptococcus pneumoniae by the microdilution broth method; format: cell-based; settings: MH broth II with horse blood and 2,2-bipyridine, 16-18 hours; for MIC against Streptococcus pneumoniae 180918016-S27: clinical strain 180918016-S27; for MIC against Streptococcus pneumoniae 180918017-S28: clinical strain 180918017-S28
Description: The minimum inhibitory concentration (MIC) determination was performed in accordance with the standards of the American Association for Clinical and Laboratory Standards (CLSIM07). The MIC determination on Streptococcus pneumoniae was carried out by the microdilution broth method as follows. First, the compound to be tested was dissolved in water to prepare a high-concentration original solution, and then the compound original solution was sequentially diluted by 2 folds, a total of 10 times, to prepare 11 samples of 10× working solution. Then the gradient dilutions of the compound were transferred to a 96-well round bottom plate, the first to eleventh wells contained 10 μL of the 11 samples of 10× working solution prepared above, respectively, and 10 μL of water was added to the twelfth well as a solvent control.

[2] = Cytotoxicity test, MTT colorimetric method, L02; format: cell-based; settings: human
Description: (§1) The cytotoxicity test was carried out with the MTT colorimetric method. 5×10^3 cells in a logarithmic growth phase were inoculated in each well of a 96-well plate, and incubated overnight at 37° C. in an incubator (5% CO2). Then, different concentrations of compounds were added and the incubation further continued for 72 hours. Finally, 10 μL of MTT solution was added to each well and he incubation further continued for 4 hours. Then, the culture medium in each well was carefully aspirated. 100 μL of dimethyl sulfoxide was added to each well, and shaken at low speed for 10 minutes on a shaker to fully dissolve crystals. The absorbance of each well was measured at OD490 nm of the enzyme-linked immunometric meter. Three parallel measurements were designed for each group, in order to calculate the standard deviation. Cell survival rate=(compound-treated OD value−blank control OD value)/(normal control OD value−blank control OD value)*100%
(§2) The toxicity of each compound was tested by measuring the half inhibitory concentrations (IC50) with respect to human normal hepatocytes (L02), human umbilical vein endothelial cells (HUVEC) and human renal epithelial cells (293T), respectively.

[3] = Cytotoxicity test, MTT colorimetric method, HUVEC; format: cell-based; settings: human
Description: as §1, §2

[4] = Cytotoxicity test, MTT colorimetric method, 293T; format: cell-based; settings: human
Description: as §1, §2

[5] = system: human normal hepatocytes, human umbilical vein endothelial cells and human renal epithelial cells; test: Cytotoxicity test, overall statement across the three normal human cell types; format: cell-based; settings: L02, HUVEC and 293T; compared with methotrexate
Description: as §1, §2

[6] = system: Enterococcus; settings: cited from earlier work
[7] = system: Streptococcus pneumoniae; settings: background statement; cited from earlier work

SMILES: CC(=O)N(O)CCCC[C@H](NC(=O)[C@H](CCCCN(O)C(C)=O)NC(=O)[C@@H](N)CCCCN(O)C(C)=O)C(=O)NCCOCCOCCNC(=O)CC[C@H](NC(=O)c1ccc(N(C)Cc2cnc3nc(N)nc(N)c3n2)cc1)C(=O)O [3-4v]
- MIC against Streptococcus pneumoniae 180918016-S27 [1]: <0.0078
- MIC against Streptococcus pneumoniae 180918017-S28 [1]: <0.0078

SMILES: CCC(=O)N(O)CCCC[C@H](NC(=O)[C@H](CCCCN(O)C(=O)CC)NC(=O)[C@@H](N)CCCCN(O)C(=O)CC)C(=O)NCCOCCOCCNC(=O)CC[C@H](NC(=O)c1ccc(N(C)Cc2cnc3nc(N)nc(N)c3n2)cc1)C(=O)O [3-4x]
- MIC against Streptococcus pneumoniae 180918016-S27 [1]: <0.0078
- MIC against Streptococcus pneumoniae 180918017-S28 [1]: <0.0078

SMILES: CC(=O)N(O)CCC[C@H](NC(=O)[C@H](CCCN(O)C(C)=O)NC(=O)[C@@H](N)CCCN(O)C(C)=O)C(=O)NCCNC(=O)[C@H](CO)NC(=O)[C@H](CO)NC(=O)CC[C@@H](NC(=O)c1ccc(N(C)Cc2cnc3nc(N)nc(N)c3n2)cc1)C(=O)O [3-4g]
- MIC against Streptococcus pneumoniae 180918016-S27 [1]: <0.0078
- MIC against Streptococcus pneumoniae 180918017-S28 [1]: <0.0078
- IC50 at 72 h [2]: 27 ± 2.88 µM
- IC50 at 72 h [3]: 18.4 ± 1.82 µM
- IC50 at 72 h [4]: 5.38 ± 0.65 µM
- Toxicity to normal human cells (in words) [5]: least toxicity

- MIC against Streptococcus pneumoniae 180918016-S27 [1]: 0.125
- MIC against Streptococcus pneumoniae 180918017-S28 [1]: 0.03125
SMILES: CN(Cc1cnc2nc(N)nc(N)c2n1)c1ccc(C(=O)N[C@@H](CCC(=O)O)C(=O)O)cc1 [Methotrexate, reference compound]
- IC50 at 72 h ([2]; L02 cells (human normal hepatocytes), L02 cells, MTT, 72 hours, read-out: Cytotoxicity IC50 L02): 0.01 µM
- IC50 at 72 h ([3]; HUVEC (human umbilical vein endothelial cells), HUVEC cells, MTT, 72 hours, read-out: Cytotoxicity IC50 HUVEC): < 0.0781 µM
- IC50 at 72 h ([4]; 293T cells (human renal epithelial cells), 293T cells, MTT, 72 hours, read-out: Cytotoxicity IC50 293T): 0.01 µM
- MIC against Enterococcus [6]: 4 µM (≈ 1.82 µg/mL)
- MIC against Streptococcus pneumoniae [7]: 0.5 µM (≈ 0.227 µg/mL)

SMILES: CC(=O)N(O)CCC[C@H](NC(=O)[C@H](CCCN(O)C(C)=O)NC(=O)[C@@H](N)CCCN(O)C(C)=O)C(=O)N[C@@H](CO)C(=O)NCCNC(=O)CC[C@@H](NC(=O)c1ccc(N(C)Cc2cnc3nc(N)nc(N)c3n2)cc1)C(=O)O [3-4f] (H-[Orn(N5-OH,N5-Ac)][Orn(N5-OH,N5-Ac)][Orn(N5-OH,N5-Ac)]S-{Ethylenediamine-d(γGlu)-DAMPA})
- MIC against Streptococcus pneumoniae 180918016-S27 [1]: <0.0078
- MIC against Streptococcus pneumoniae 180918017-S28 [1]: <0.0078
- IC50 at 72 h [2]: 14.7 ± 1.7 µM
- IC50 at 72 h [3]: 19.2 ± 0.54 µM
- IC50 at 72 h [4]: 3.93 ± 0.03 µM

SMILES: CC(=O)N(O)CCC[C@H](NC(=O)[C@H](CCCN(O)C(C)=O)NC(=O)[C@@H](N)CCCN(O)C(C)=O)C(=O)NCCNC(=O)[C@H](CCCCN)NC(=O)CC[C@@H](NC(=O)c1ccc(N(C)Cc2cnc3nc(N)nc(N)c3n2)cc1)C(=O)O [3-4h]
- IC50 at 72 h [2]: 34.5 ± 4.01 µM
- IC50 at 72 h [3]: 16.6 ± 2 µM
- IC50 at 72 h [4]: 10.6 ± 1.34 µM
- Toxicity to normal human cells (in words) [5]: least toxicity

SMILES: CC(=O)N(O)CCC[C@H](NC(=O)[C@H](CCCN(O)C(C)=O)NC(=O)[C@@H](N)CCCN(O)C(C)=O)C(=O)NCCCCCNC(=O)CC[C@@H](NC(=O)c1ccc(N(C)Cc2cnc3nc(N)nc(N)c3n2)cc1)C(=O)O [3-4b]
- MIC against Streptococcus pneumoniae 180918016-S27 [1]: 0.0625
- MIC against Streptococcus pneumoniae 180918017-S28 [1]: <0.0078
- IC50 at 72 h [2]: 34.6 ± 14.5 µM
- IC50 at 72 h [3]: 31 ± 3.18 µM
- IC50 at 72 h [4]: 8.82 ± 0.08 µM
- Toxicity to normal human cells (in words) [5]: least toxicity

SMILES: CN[C@H](CC(C)C)C(=O)N[C@H]1C(=O)N[C@@H](CC(N)=O)C(=O)N[C@H]2C(=O)N[C@H]3C(=O)N[C@H](C(=O)N[C@H](C(=O)O)c4cc(O)cc(O)c4-c4cc3ccc4O)[C@H](O)c3ccc(c(Cl)c3)Oc3cc2cc(c3O[C@@H]2O[C@H](CO)[C@@H](O)[C@H](O)[C@H]2O[C@H]2C[C@](C)(N)[C@H](O)[C@H](C)O2)Oc2ccc(cc2Cl)[C@H]1O [Vancomycin, reference compound]
- MIC against Streptococcus pneumoniae 180918016-S27 [1]: 0.25
- MIC against Streptococcus pneumoniae 180918017-S28 [1]: 0.125

SMILES: CC(=O)N(O)CCC[C@H](NC(=O)[C@H](CCCN(O)C(C)=O)NC(=O)[C@@H](N)CCCN(O)C(C)=O)C(=O)NCCOCCOCCNC(=O)CC[C@@H](NC(=O)c1ccc(N(C)Cc2cnc3nc(N)nc(N)c3n2)cc1)C(=O)O [3-4c]
- MIC against Streptococcus pneumoniae 180918016-S27 [1]: <0.0078
- MIC against Streptococcus pneumoniae 180918017-S28 [1]: <0.0078
- IC50 at 72 h [2]: 5.46 ± 2.18 µM
- IC50 at 72 h [3]: 4.52 ± 0.21 µM
- IC50 at 72 h [4]: 2.66 ± 0.01 µM

From patent US12622974B2, “Siderophore-dihydrofolate reductase inhibitor conjugate and application thereof” (priority 2020, dated 2026)
